Experimental data reported in ChEMBL document CHEMBL5346920, “Development of the "hidden" multi-target-directed ligands by AChE/BuChE for the treatment of Alzheimer's disease” (Eur J Med Chem, 2023).
The source made the active and inactive calls. The rule behind the calls is not given here.

Columns and labels:
[1] = target: T1, Amine oxidase [flavin-containing] B (Homo sapiens, UniProt P27338); assay: Inhibition of human recombinant MAO-B expressed in baculovirus-infected BTI cells using kynuramine as substrate incubated for 30 mins by fluorescence based analysis
T1 sequence (P27338 whole entry): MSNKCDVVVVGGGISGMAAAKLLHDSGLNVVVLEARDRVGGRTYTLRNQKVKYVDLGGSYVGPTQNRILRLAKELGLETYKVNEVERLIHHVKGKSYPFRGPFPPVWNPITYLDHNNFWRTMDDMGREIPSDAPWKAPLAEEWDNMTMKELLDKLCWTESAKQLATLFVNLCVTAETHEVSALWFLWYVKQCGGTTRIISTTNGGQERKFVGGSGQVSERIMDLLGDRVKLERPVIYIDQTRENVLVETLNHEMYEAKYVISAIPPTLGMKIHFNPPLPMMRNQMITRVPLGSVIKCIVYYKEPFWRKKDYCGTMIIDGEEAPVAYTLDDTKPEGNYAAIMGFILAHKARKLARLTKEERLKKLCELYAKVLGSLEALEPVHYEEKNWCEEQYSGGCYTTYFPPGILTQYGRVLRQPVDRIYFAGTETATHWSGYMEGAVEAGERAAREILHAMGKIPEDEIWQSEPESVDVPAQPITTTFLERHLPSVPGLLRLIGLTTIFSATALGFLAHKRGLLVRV

Homo sapiens = species on record: Homo sapiens; assay: Selectivity index, ratio of IC50 for inhibition of human recombinant MAO-A expressed in baculovirus-infected BTI cells to IC50 for inhibition of human recombinant MAO-B expressed in baculovirus-infected BTI cells
PC-12 [2] = assay: Neuroprotective activity against Amyloid beta(25 to 35)-induced cell injury in rat PC12 cells assessed as cell viability at 5 uM pretreated for 2 hrs followed by incubation with Abeta(25 to 35) for 24 hrs by CCK-8 assay (reference value: 41 to 58.6%); type: functional; conditions: time 26 hrs, read-out: Activity
PC-12 [3] = assay: Neuroprotective activity against Amyloid beta(25 to 35)-induced cell injury in rat PC12 cells assessed as cell viability at 20 uM pretreated for 2 hrs followed by incubation with Abeta(25 to 35) for 24 hrs by CCK-8 assay (reference value: 41 to 58.6%); type: functional; conditions: time 26 hrs, read-out: Activity
[4] = Metal chelating activity assessed as compound-Cu2+ complex formation by measuring maximum absorption wavelength shift from 316 to 446 nm at 37.5 uM incubated for 30 mins in presence of CuCl2 by UV-Vis spectrometry
[5] = Metal chelating activity assessed as compound-Al3+ complex formation by measuring maximum absorption wavelength shift from 316 to 434 nm at 37.5 uM incubated for 30 mins in presence of AlCl3 by UV-Vis spectrometry
Cholinesterase [6] = target: T2, Cholinesterase (Equus caballus, UniProt P81908); assay: Inhibition of equine serum BuChE using butyrylthiocholine chloride as substrate by Ellman's method; type: cell-free
T2 sequence (P81908 whole entry): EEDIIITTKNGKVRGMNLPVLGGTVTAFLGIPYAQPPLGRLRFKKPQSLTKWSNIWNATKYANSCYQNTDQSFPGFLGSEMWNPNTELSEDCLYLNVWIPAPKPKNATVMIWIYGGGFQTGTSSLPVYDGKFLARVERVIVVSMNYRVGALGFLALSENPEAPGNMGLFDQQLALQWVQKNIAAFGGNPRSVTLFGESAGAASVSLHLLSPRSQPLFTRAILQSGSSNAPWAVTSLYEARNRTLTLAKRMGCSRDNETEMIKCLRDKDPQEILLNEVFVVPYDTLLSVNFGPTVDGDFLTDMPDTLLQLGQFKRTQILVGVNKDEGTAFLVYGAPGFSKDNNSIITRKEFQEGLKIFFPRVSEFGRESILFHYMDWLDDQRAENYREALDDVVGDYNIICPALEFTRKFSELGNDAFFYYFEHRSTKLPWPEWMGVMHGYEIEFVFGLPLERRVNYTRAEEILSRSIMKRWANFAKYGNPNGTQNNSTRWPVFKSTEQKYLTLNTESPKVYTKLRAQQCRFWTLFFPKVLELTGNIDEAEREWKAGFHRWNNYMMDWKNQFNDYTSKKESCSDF

[7] = target: Cholinesterase (Equus caballus) (UniProt P81908); assay: Reversible inhibition of equine serum BuChE assessed as enzyme activity using butyrylthiocholine chloride as substrate measured after dilution to 1XIC50 by Ellman's method; type: cell-free; design: scale not given: the % may be the effect or the level left
Chain of Cholinesterase (Equus caballus) (P81908 whole entry): as above

[8] = target: Acetylcholinesterase (Electrophorus electricus) (UniProt O42275); assay: Reversible inhibition of electric eel AChE assessed as enzyme activity using acetylthiocholine iodide as substrate measured after dilution to 0.1XIC50 for 120 mins by Ellman's method; design: scale not given: the % may be the effect or the level left
Chain of Acetylcholinesterase (Electrophorus electricus) (O42275 24-633 limits assumed): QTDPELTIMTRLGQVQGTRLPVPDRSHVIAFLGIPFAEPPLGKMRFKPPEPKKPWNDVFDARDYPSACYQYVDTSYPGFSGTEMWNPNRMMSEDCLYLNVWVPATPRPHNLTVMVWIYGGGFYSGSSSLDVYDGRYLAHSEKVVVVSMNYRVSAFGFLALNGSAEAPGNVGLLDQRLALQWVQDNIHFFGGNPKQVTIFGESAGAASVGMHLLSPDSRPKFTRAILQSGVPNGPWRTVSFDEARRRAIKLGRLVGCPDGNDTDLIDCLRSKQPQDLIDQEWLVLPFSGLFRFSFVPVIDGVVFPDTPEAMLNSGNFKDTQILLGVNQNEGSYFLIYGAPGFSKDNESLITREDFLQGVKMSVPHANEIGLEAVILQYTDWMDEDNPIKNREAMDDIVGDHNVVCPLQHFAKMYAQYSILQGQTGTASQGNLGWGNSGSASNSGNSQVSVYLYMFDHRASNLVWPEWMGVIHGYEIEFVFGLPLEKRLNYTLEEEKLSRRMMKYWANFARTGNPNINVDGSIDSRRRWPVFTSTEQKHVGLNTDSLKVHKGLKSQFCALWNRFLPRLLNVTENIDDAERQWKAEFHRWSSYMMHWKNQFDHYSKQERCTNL

BV-2 = assay: Anti-inflammatory activity against LPS-stimulated mouse BV-2 cells assessed as inhibition of LPS-induced IL-1 beta production incubated for 24 hrs in presence of LPS; type: functional, cell-based; conditions: dose 1-9 µM
Acetylcholinesterase [9] = target: T3, Acetylcholinesterase (Electrophorus electricus, UniProt O42275); assay: Drug metabolism assessed as electric eel AChE-mediated 3-(4-fluorophenyl)-1-(2-hydroxyphenyl)prop-2-en-1-one formation treated at 150 mmol/L with 0.25U AChE and measured after 9 mins by HPLC analysis; type: ADME; conditions: 0.15 h
T3 sequence (O42275 whole entry): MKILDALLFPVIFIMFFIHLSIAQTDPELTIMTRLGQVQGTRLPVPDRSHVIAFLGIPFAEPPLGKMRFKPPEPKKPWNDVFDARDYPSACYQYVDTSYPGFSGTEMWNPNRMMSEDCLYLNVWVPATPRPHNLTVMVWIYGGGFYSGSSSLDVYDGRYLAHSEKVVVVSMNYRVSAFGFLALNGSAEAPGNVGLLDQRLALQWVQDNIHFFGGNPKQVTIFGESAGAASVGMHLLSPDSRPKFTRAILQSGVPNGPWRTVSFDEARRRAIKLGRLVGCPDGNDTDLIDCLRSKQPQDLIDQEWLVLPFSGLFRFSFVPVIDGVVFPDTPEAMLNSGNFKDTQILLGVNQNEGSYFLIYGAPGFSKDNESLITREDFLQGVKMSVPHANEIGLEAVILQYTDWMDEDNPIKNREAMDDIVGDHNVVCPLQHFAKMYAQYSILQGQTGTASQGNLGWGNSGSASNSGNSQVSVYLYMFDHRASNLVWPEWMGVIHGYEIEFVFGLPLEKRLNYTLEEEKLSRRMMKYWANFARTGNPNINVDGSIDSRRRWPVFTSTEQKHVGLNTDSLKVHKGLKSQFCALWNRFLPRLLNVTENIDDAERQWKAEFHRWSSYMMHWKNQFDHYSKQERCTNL

Acetylcholinesterase [10] = target: T3, Acetylcholinesterase; assay: Drug metabolism assessed as electric eel AChE-mediated 3-(4-fluorophenyl)-1-(2-hydroxyphenyl)prop-2-en-1-one formation treated at 150 mmol/L with 0.5U AChE and measured after 9 mins by HPLC analysis; type: ADME; conditions: 0.15 h
Cholinesterase [11] = target: T2, Cholinesterase; assay: Drug metabolism assessed as equine serum BuChE-mediated 3-(4-fluorophenyl)-1-(2-hydroxyphenyl)prop-2-en-1-one formation treated at 150 mmol/L with 0.001U BuChE and measured after 9 mins by HPLC analysis; type: ADME, cell-free; conditions: horse, 0.15 h
Acetylcholinesterase [12] = target: T3, Acetylcholinesterase; assay: Drug metabolism assessed as electric eel AChE-mediated 3-(4-fluorophenyl)-1-(2-hydroxyphenyl)prop-2-en-1-one formation by measuring decarbamoylation rate constant treated with 0.25U AChE for 9 mins by HPLC analysis; type: ADME; conditions: 0.15 h
Cholinesterase [13] = target: T2, Cholinesterase; assay: Drug metabolism assessed as equine serum BuChE-mediated 3-(4-fluorophenyl)-1-(2-hydroxyphenyl)prop-2-en-1-one formation by measuring decarbamoylation rate constant with 0.25U BuChE for 9 mins by HPLC analysis; type: ADME, cell-free; conditions: horse, 0.15 h
[14] = Stability of the compound in artificial gastric juice assessed as parent compound remaining at 1 mg/ml measured after 8 hrs by UPLC-MS/MS analysis; type: ADME; conditions: read-out: Stability
[15] = Stability of the compound in blank intestinal juice assessed as parent compound remaining at 1 mg/ml measured after 8 hrs by UPLC-MS/MS analysis; type: ADME; conditions: read-out: Stability
[16] = Stability of the compound in artificial intestinal juice assessed as parent compound remaining at 1 mg/ml measured after 8 hrs by UPLC-MS/MS analysis; type: ADME; conditions: read-out: Stability
[17] = Acute toxicity in zebra fish assessed as decrease in swim bladder area at 2.5 ug/ml and measured at 120 hpf by microscopic analysis; design: species or system Danio rerio; conditions: zebrafish; dose 2.5 µg/ml
[18] = Acute toxicity in zebra fish assessed as effect on liver fluorescence area at 0.3125 to 1.25 ug/ml and measured at 120 hpf by microscopic analysis; design: species or system Danio rerio; conditions: zebrafish; dose 0.3125-1.25 µg/ml
Danio rerio [19] = species on record: Danio rerio; assay: Antialzheimer activity against AlCl3-induced Alzheimer's disease zebra fish model assessed as improvement in total distance velocity at 0.0195 ug/ml treated for 24 hrs and measured after 24 hrs; type: functional, organism-based; conditions: dose 0.0195 µg/ml, time 48.0 hrs
Danio rerio [20] = species on record: Danio rerio; assay: Antialzheimer activity against AlCl3-induced Alzheimer's disease zebra fish model assessed as total distance moved at 0.0195 ug/ml treated for 24 hrs and measured after 24 hrs under dark environment (reference value: 312 cm); type: functional; conditions: dose 0.0195 µg/ml; time 48 hrs
Danio rerio [21] = species on record: Danio rerio; assay: Antialzheimer activity against AlCl3-induced Alzheimer's disease zebra fish model assessed as total distance moved at 0.078 ug/ml treated for 24 hrs and measured after 24 hrs under dark environment (reference value: 312 cm); type: functional; conditions: dose 0.078 µg/ml; time 48 hrs
Danio rerio [22] = species on record: Danio rerio; assay: Antialzheimer activity against AlCl3-induced Alzheimer's disease zebra fish model assessed as total distance moved at 0.0049 ug/ml treated for 24 hrs and measured after 24 hrs under alternating light dark stimuli conditions (reference value: 543 cm); type: functional; conditions: dose 0.0049 µg/ml; time 48 hrs
Danio rerio [23] = species on record: Danio rerio; assay: Neuroprotective activity against AlCl3-induced Alzheimer's disease zebra fish model assessed as distance velocity at 0.0049 ug/ml treated for 24 hrs and measured after 24 hrs under alternating light dark stimuli conditions (reference value: 9 cm/min); type: functional; conditions: dose 0.0049 µg/ml; time 48 hrs

## CCN(C)C(=O)Oc1ccccc1C(=O)/C=C/c1ccc(F)cc1
[1]
  IC50: 1900 nM
Homo sapiens
  Ratio IC50: 20.1
PC-12 [2]
  viability at 5 µM: 70.9%
PC-12 [3]
  viability at 20 µM: 79.7%
[4]
  Activity: inactive
[5]
  Activity: inactive
Cholinesterase [6]
  IC50: 12.4 µM
[7]
  Activity: 51.7%
[8]
  Activity: 88.7%
BV-2
  Activity: Dose-Dependent Effect
Acetylcholinesterase [9]
  Drug metabolism: 22.57 mmol/L
Acetylcholinesterase [10]
  Drug metabolism: 24.87 mmol/L
Cholinesterase [11]
  Drug metabolism: 2.52 mmol/L
Acetylcholinesterase [12]
  K: 0.312 L/min/mmol
Cholinesterase [13]
  K: 0.243 L/min/mmol
[14]
  remaining at 8 h, 1 mg/ml: 97.3%
[15]
  remaining at 8 h, 1 mg/ml: 98.5%
[16]
  remaining at 8 h, 1 mg/ml: 104%
[17]
  Activity: Toxic
[18]
  Activity: Non-Toxic
Danio rerio [19]
  Activity: Active
Danio rerio [20]
  Activity: 577 cm
Danio rerio [21]
  Activity: 537 cm
Danio rerio [22]
  Activity: 764 cm
Danio rerio [23]
  Activity: 12.7 cm/min
